Experimental findings from patent US20230141284A1, “CANCER THERAPEUTIC METHOD” (ONO PHARMACEUTICAL CO., LTD., priority 2020, published 2023) are described below.

For data set [1], the system named is IRF (Interferon Regulatory Factor) pathway. Briefly: Effect on IRF (Interferon Regulatory Factor) pathway, Quanti-luc reporter cells. As to conditions: activation of the IRF pathway, luminescence, about 24 hours incubation. It counts as cell-based. The procedure:
The cells mainly described at lines 12-20 of the right column on page 183 in Mol Immunol. 2017, Vol. 90, p. 182-189 were suspended in RPMI medium to prepare 2×10^6 cells/mL of cell suspension. 50 μL of the cell suspensions were dispensed into a 96-well plate, to which 50 μL of 6 to 20,000 nmol/L compound solutions were added. After adding the compound, the mixture thereof was incubated at 37° C. for about 24 hours. After incubation, 10 μL of cell suspensions were collected from each well, which were mixed with 50 μL of Quanti-luc (Invivogen). Then, the activation of the IRF pathway was measured by detecting luminescence using a microplate reader (Molecular Devices).

The nature of data set [2]: Conversion of a prodrug to its active body (Compound B) in mouse plasma. The note with it: 1 μmol/L, 37° C., 60 minutes. It counts as in vitro ADME. The procedure: (§1) The solutions of the example compounds in Table 2 below (50 μmol/L, 50% acetonitrile with 5% DMSO) were added to plasma (245 μL), respectively, such that the final concentrations thereof become 1 μmol/L. After keeping them the temperature at 37° C. for 60 minutes, 40 μL of the reaction solutions were taken therefrom, and added to 200 μL of acetonitrile/ethanol (7:3) containing Candesartan (internal standard).
(§2) The concentration of the compound prepared in Example 3 (Compound B) in the plasma resulting from the above reaction was analyzed by LC-MS/MS according to the following method.
(§3) The whole amount was transferred to a filter plate for protein removal and filtered by suction, and the filtrate thereof was diluted 2-fold with water. [LC column] Shim-pack XR-ODSII 2.0 mm ID×75 mm (Shimadzu Corporation) [LC condition] Column temperature: 40° C. Mobile phase: A: 0.2% formic acid in 5 mM ammonium acetate solution; and
(§4) [MS conditions] Electrospray, positive mode, multiple reaction monitoring; MS monitor ion: Compound B: m/z353.0→m/z311.2, DP: 80, CE: 35; and Candesartan (internal standard): m/z309.1→m/z163.0, DP: 71, CE: 21.
(§5) A regression formula was calculated from the peak area ratio (peak area of Compound B/peak area of Candesartan) of the real sample and the standard sample for the calibration curve in the same matrix, and the peak area ratio of the real sample was substituted into the regression formula to calculate the quantitative value. 60 minutes later, the concentration of Compound B in the sample was compared, and the conversion rate (%) thereof was calculated using the following formula:
(§6) Conversion rate (%)=Concentration of Compound B in the sample after 60 minutes (μmol/L)×100

Data set [3] in a line: Conversion of a prodrug to its active body (Compound B) in human plasma. It counts as in vitro ADME. The note with it: 1 μmol/L, 37° C., 60 minutes. The procedure:
as §1, §2, §3, §4, §5, §6

Structures are written as SMILES. Where a name gives a salt, the structure may show the parent alone.

What is called EC50 is the concentration needed to bring the measured effect to its halfway point. On to `NC(=O)c1cc(-c2ncc(-c3cn[nH]c3)c3onc(N)c23)c(F)cc1N` [Example 4(5), 2-amino-5-(3-amino-7-(1H-pyrazol-4-yl)isoxazolo[4,5-c]pyridin-4-yl)-4-fluorobenzamide hydrochloride], for which, in data set [1], the midpoint of the response, the EC50, lay at 80 nM.

Take `CCOC(=O)c1cc(-c2ncc(-c3cn[nH]c3)c3onc(N)c23)c(F)cc1N` [Example 4(6), ethyl 2-amino-5-(3-amino-7-(1H-pyrazol-4-yl)isoxazolo[4,5-c]pyridin-4-yl)-4-fluorobenzoate hydrochloride]: the midpoint of the response in data set [1], the EC50, lay at 40 nM.

Consider `CCC(=O)c1cc(-c2ncc(-c3cn[nH]c3)c3onc(N)c23)c(F)cc1N` [Example 4(7), 1-(2-amino-5-(3-amino-7-(1H-pyrazol-4-yl)isoxazolo[4,5-c]pyridin-4-yl)-4-fluorophenyl)propan-1-one hydrochloride], for which, in data set [1], a half-maximal response (EC50) required 20 nM.

In the case of `CCNC(=O)c1cc(-c2ncc(-c3cn[nH]c3)c3onc(N)c23)c(F)cc1N` [Example 4(8), 2-amino-5-(3-amino-7-(1H-pyrazol-4-yl)isoxazolo[4,5-c]pyridin-4-yl)-N-ethyl-4-fluorobenzamide hydrochloride], in data set [1], a half-maximal response (EC50) required 20 nM.

Take `CNC(=O)c1cc(-c2ncc(-c3cn[nH]c3)c3onc(N)c23)ccc1N` [Example 4(15), 2-amino-5-(3-amino-7-(1H-pyrazol-4-yl)isoxazolo[4,5-c]pyridin-4-yl)-N-methylbenzamide hydrochloride]: a half-maximal effect in data set [1] (EC50) was put at 100 nM.

Take `CSc1cc(-c2ncc(-c3cn[nH]c3)c3onc(N)c23)c(Cl)cc1N` [Example 4(16), 4-(4-amino-2-chloro-5-(methylthio)phenyl)-7-(1H-pyrazol-4-yl)isoxazolo[4,5-c]pyridin-3-amine hydrochloride]: the concentration giving a half-maximal response (EC50) in data set [1] came out at 1000 nM.

On to `CSc1cc(-c2ncc(-c3cn[nH]c3)c3onc(N)c23)c(F)cc1N` [Example 4, 4-(4-amino-2-fluoro-5-(methylthio)phenyl)-7-(1H-pyrazol-4-yl)isoxazolo[4,5-c]pyridin-3-amine hydrochloride], for which the EC50 in data set [1] amounted to 90 nM.

Regarding `CC(=O)c1cc(-c2ncc(-c3cnn(COC(=O)N(C)c4ncccc4COP(=O)(O)O)c3)c3onc(N)c23)c(F)cc1N` [Example 12(1), (4-(5-(5-acetyl-4-amino-2-fluorophenyl)-3-aminoisoxazolo[4,5-c]pyridin-7-yl)-1H-pyrazol-1-yl)methyl methyl(3-((phosphonooxy)methyl)pyridin-2-yl)carbamate], in data set [2], the “Plasma conversion rate Mouse” value is given as “+ (the conversion rate of each example compound in the table to Compound B is less than 25%)”. For the same compound, in data set [3], the “Plasma conversion rate Human” value is “+ +”.

Regarding `CNCC(=O)OCc1cccnc1N(C)C(=O)OC(C)n1cc(-c2cnc(-c3cc(C(C)=O)c(N)cc3F)c3c(N)noc23)cn1` (stereo not drawn) [Example 12(2), (2-(((1-(4-(5-(5-acetyl-4-amino-2-fluorophenyl)-3-aminoisoxazolo[4,5-c]pyridin-7-yl)-1H-pyrazol-1-yl)ethoxy)carbonyl)(methyl)amino)pyridin-3-yl)methyl methylglycinate], the “Plasma conversion rate Mouse” value in data set [2] was “+ + +”. For the same compound, the “Plasma conversion rate Human” value in data set [3] is listed as “+ + +”.

On to `CNCC(=O)OCc1cccnc1N(C)C(=O)OCn1cc(-c2cnc(-c3cc(C(C)=O)c(N)cc3F)c3c(N)noc23)cn1.Cl` [Example 12(3), 2-((2-((((4-(4-(5-acetyl-4-amino-2-fluorophenyl)-3-aminoisoxazolo[4,5-c]pyridin-7-yl)-1H-pyrazol-1-yl)methoxy)carbonyl)(methyl)amino)pyridin-3-yl)methoxy)-N-methyl-2-oxoethane-1-ammonium chloride], for which the “Plasma conversion rate Mouse” value in data set [2] is “+ + +”. The “Plasma conversion rate Human” value in data set [3] is listed as “+ + +”.

Regarding `CC(=O)c1cc(-c2ncc(-c3cnn(COC(=O)OCCN4CCOCC4)c3)c3onc(N)c23)c(F)cc1N.Cl` [Example 12(4), (4-(4-(5-acetyl-4-amino-2-fluorophenyl)-3-aminoisoxazolo[4,5-c]pyridin-7-yl)-1H-pyrazol-1-yl)methyl (2-morpholinoethyl)carbonate hydrochloride], the “Plasma conversion rate Mouse” value in data set [2] is recorded as “+ + +”. In data set [3], the “Plasma conversion rate Human” value is “+ + +”.

Consider `CC(=O)c1cc(-c2ncc(-c3cnn(COC(=O)OC[C@H]4OC(O)[C@H](O)[C@@H](O)[C@@H]4O)c3)c3onc(N)c23)c(F)cc1N` (stereo partly drawn) [Example 12(5), (4-(4-(5-acetyl-4-amino-2-fluorophenyl)-3-aminoisoxazolo[4,5-c]pyridin-7-yl)-1H-pyrazol-1-yl)methyl (((2R,3S,4S,5R)-3,4,5,6-tetrahydroxytetrahydro-2H-pyran-2-yl)methyl) carbonate], for which the “Plasma conversion rate Mouse” value in data set [2] is on record as “+ + +”. Further, the “Plasma conversion rate Human” value in data set [3] was “+ + +”.

As to `CC(=O)c1cc(-c2ncc(-c3cnn(COC(=O)OC[C@H]4OC(O)[C@H](N)[C@@H](O)[C@@H]4O)c3)c3onc(N)c23)c(F)cc1N.Cl` (stereo partly drawn) [Example 12(6), (4-(4-(5-acetyl-4-amino-2-fluorophenyl)-3-aminoisoxazolo[4,5-c]pyridin-7-yl)-1H-pyrazol-1-yl)methyl (((2R,3S,4R,5R)-5-amino-3,4,6-trihydroxytetrahydro-2H-pyran-2-yl)methyl) carbonate hydrochloride], the “Plasma conversion rate Mouse” value in data set [2] was “+ + +”. Also, the “Plasma conversion rate Human” value in data set [3] is on record as “+ + +”.

Turning to `CC(=O)c1cc(-c2ncc(-c3cnn(C(=O)NCC(=O)O)c3)c3onc(N)c23)c(F)cc1N` [Example 12(9), (4-(4-(5-acetyl-4-amino-2-fluorophenyl)-3-aminoisoxazolo[4,5-c]pyridin-7-yl)-1H-pyrazole-1-carbonyl)glycine], the “Plasma conversion rate Mouse” value in data set [2] was “+ (the conversion rate of each example compound in the table to Compound B is less than 25%)”. Moreover, the “Plasma conversion rate Human” value in data set [3] is listed as “+ (the conversion rate of each example compound in the table to Compound B is less than 25%)”.

Take `COC(=O)n1cc(-c2cnc(-c3cc(C(C)=O)c(N)cc3F)c3c(N)noc23)cn1` [Example 12(10), methyl 4-(4-(5-acetyl-4-amino-2-fluorophenyl)-3-aminoisoxazolo[4,5-c]pyridin-7-yl)-1H-pyrazole-1-carboxylate]: the “Plasma conversion rate Mouse” value in data set [2] is “+ + +”. The “Plasma conversion rate Human” value in data set [3] is reported as “+ + +”.

As to `CC(=O)c1cc(-c2ncc(-c3cnn(COP(=O)(O)OCOC(=O)OC(C)C)c3)c3onc(N)c23)c(F)cc1N` [Example 12(11), ((((4-(4-(5-acetyl-4-amino-2-fluorophenyl)-3-aminoisoxazolo[4,5-c]pyridin-7-yl)-1H-pyrazol-1-yl)methoxy)(hydroxy)phosphoryl)oxy)methyl isopropyl carbonate], the “Plasma conversion rate Mouse” value in data set [2] is reported as “+ (the conversion rate of each example compound in the table to Compound B is less than 25%)”. The “Plasma conversion rate Human” value in data set [3] is “+ (the conversion rate of each example compound in the table to Compound B is less than 25%)”.

Consider `CC(=O)c1cc(-c2ncc(-c3cnn(COC(=O)N4CCC(N5CCCCC5)CC4)c3)c3onc(N)c23)c(F)cc1N` [Example 12, (4-(4-(5-acetyl-4-amino-2-fluorophenyl)-3-aminoisoxazolo[4,5-c]pyridin-7-yl)-1H-pyrazol-1-yl)methyl [1,4′-bipiperidine]-1′-carboxylate], for which the “Plasma conversion rate Mouse” value in data set [2] is reported as “+ (the conversion rate of each example compound in the table to Compound B is less than 25%)”. The “Plasma conversion rate Human” value in data set [3] is on record as “+ (the conversion rate of each example compound in the table to Compound B is less than 25%)”.
